Legend:
peptides A, B and C [1] = assay: Concentration dependence of stabilization of peptides A, B and C in horse serum (Example 2); assay type: biochemical; conditions: for concentration dependence of stabilization, peptides A, B and C / stabilization of peptides A, B and C: 1.25%, 2.5% and 5% (v/v); for stabilization of peptides A, B and C: room temperature, 0 h and 5 h
Description: (§1) Gastrin-17 (GAST_HUMAN(77-92)[Pyr-77]amid) and MS Qual/Quant QC-Mix (Mat. No.: MSQC2, Sigma Aldrich; comprises peptides A, B and C) was solved in horse serum with a concentration of 2.0 mg/ml and diluted to 0.22 mg/mL.
(§2) This solution was spiked respectively to reach a concentration of 0.1 mg/ml in (a) horse serum with added 5% [v/v] DMSO (CAS: 67-68-5); (b) horse serum with added 5% [v/v] Sulfolane (CAS: 126-33-0); c) horse serum with added 2.5% [v/v] DMSO (CAS: 67-68-5); d) horse serum with added 2.5% [v/v] Sulfolane (CAS: 126-33-0); e) horse serum with added 1.25% [v/v] DMSO (CAS: 67-68-5); f) horse serum with added 1.25% [v/v] Sulfolane (CAS: 126-33-0); The samples were stored at room temperature. A sample was taken 0 h and 5 h after spiking. The further experiment was conducted as described in Example 1.

gastrin-17 [2] = assay: Concentration dependence of gastrin-17 stabilization in horse serum (Example 2); assay type: biochemical, human gastrin-17 (GAST_HUMAN) in horse serum; conditions: for concentration dependence of stabilization, gastrin-17 / stabilization of gastrin-17: 1.25%, 2.5% and 5% (v/v); for stabilization of gastrin-17: room temperature, 0 h and 5 h
Description: as §1, §2

peptides A, B and C [3] = assay: Stability of peptides A, B and C in horse serum with 5% additive (Example 1, HPLC-MS); assay type: biochemical; conditions: for protection ability on different peptides (A, B, C): room temperature, 0 h, 5 h, 23 h
Description: (§3) Gastrin-17 (GAST_HUMAN(77-92)[Pyr-77]amid) and MS Qual/Quant QC-Mix (Mat. No.: MSQC2, Sigma Aldrich, a peptide mix comprising peptides A, B and C as referred to herein) was solved in horse serum with a concentration of 2.0 mg/ml and diluted to 0.22 mg/mL.
(§4) This solution was spiked respectively to reach a final peptide concentration of 0.1 mg/ml in (a) horse serum with added 5% [v/v]H2O; (b) horse serum with added 5% [v/v] DMSO (CAS: 67-68-5); (c) horse serum with added 5% [v/v] Sulfolane (CAS: 126-33-0). The samples were stored at room temperature. Samples were taken at three times after spiking (0 h, 5 h and 23 h) and centrifuged with a Microcon-10 filter (Ultracel PL-10, Regenerated Cellulose 10,000 NMWL) for 10 min at 4 °C and 10,000 rpm. Afterwards the filtrate was separated by a liquid chromatography (HPLC) coupled with MS detector (QTOF Premier, Waters). The separation was done by a reverse phase liquid chromatography (Vydac 218TP C18, 5 μm, 2.1×150 mm, column temperature 50 °C) with a linear gradient to 100% of eluent B over 17 minutes. The eluent A was water with 0.025% [v/v]trifluoroacetic acid and eluent B was acetonitrile with 0.023% [v/v]trifluoroacetic acid. The quantification was done by using […]=1049.9 Da for Gastrin-17, [M+2H]^2+=671.8 Da for peptid A, [M+2H]^2+=751.4 Da for peptid B and [M+2H]^2+=802.9 Da for peptid C. Peptid A, B and C are exemplary peptides contained in the peptid-Mix MS Qual/Quant QC-Mix (Mat. No.: MSQC2, Sigma Aldrich). The peptide mix MS Qual/Quant QC-Mix (Mat. No.: MSQC2, Sigma Aldrich) contained peptides of a length of 4 to 26 amino acids.

gastrin-17 [4] = assay: Gastrin-17 stabilization by sulfone compounds in horse serum (Example 3); assay type: biochemical, human gastrin-17 (GAST_HUMAN) in horse serum; conditions: for ability to stabilize gastrin-17 in serum / stabilizing effect on gastrin-17 compared with DMSO: 5% [v/v], horse serum, room temperature, 5 h and 24 h
Description: Gastrin-17 (GAST_HUMAN(77-92)[Pyr-77]amid) was solved in horse serum with a concentration of 2.0 mg/ml and diluted to 0.22 mg/mL.
This solution was spiked respectively to reach a concentration of gastrin-17 of 0.1 mg/ml in (a) horse serum with added 5% [v/v]H2O; (b) horse serum with added 5% [v/v] DMSO (CAS: 67-68-5); (c) horse serum added 5% [v/v] Sulfolane (CAS: 126-33-0); d) horse serum with added 5% [v/v]trimethylene sulfone (CAS: 5687-92-3); e) horse serum with added 5% [v/v]1,1-dioxoisothiazolidine (CAS: 5908-62-3); f) horse serum with added 5% [v/v]1,4-butanesultone (CAS: 1633-83-6); g) horse serum with added 5% [v/v]tetrahydro-2H-thiopyran-4-ol 1,1-dioxide (CAS: 194152-05-1); h) horse serum with added 5% [v/v]2-methyltetrahydrothiophene 1,1-dioxide (CAS: 1003-46-9); i) horse serum with added 5% [v/v]ethylmethylsulfone (CAS: 594-43-4). The samples were then stored/incubated at room temperature. Samples were taken after 0 h, 5 h and 24 h. The further experiment was performed as described in Example 1.

[5] = cited from earlier work; for stability against oxidation compared with DMSO: Wasmus S and Vielstich W, Electrochimica Acta 1993
gastrin-17 [6] = assay: Gastrin-17 stability in horse serum with 5% additive (Example 1, HPLC-MS); assay type: biochemical, human gastrin-17 (GAST_HUMAN) in horse serum; conditions: for protection ability on gastrin-17: room temperature, 0 h, 5 h, 23 h
Description: as §3, §4

[7] = 5% [v/v], especially after longer incubation (23 h)

Compound: O=S1(=O)CCCC1 [Sulfolane]
- concentration dependence of stabilization, peptides A, B and C (peptides A, B and C [1]; 5 h): stabilization increased with the concentration
- stabilization of peptides A, B and C (peptides A, B and C [1]): stabilized each of the peptides
- overall stabilization compared with DMSO, peptides A, B and C (peptides A, B and C [1]; 1.25-5% (v/v), 5 h): overall better peptide stabilization ability
- concentration dependence of stabilization, gastrin-17 (gastrin-17 [2]; 5 h): stabilization increased with the concentration
- stabilization of gastrin-17 (gastrin-17 [2]): stabilized each of the peptides
- overall stabilization compared with DMSO, gastrin-17 (gastrin-17 [2]; 1.25-5% (v/v), 5 h): overall better peptide stabilization ability
- stability improvement (MassSpec peak area) (gastrin-17 [2]; FIG. 3, 5% vs 2.5% and 1.25% sulfolane or DMSO, legend says only "Peptide"): improves stability best
- protection of peptides A, B, C compared with DMSO (peptides A, B and C [3]; [7]): exceeds the DMSO protection outcome
- protection ability on different peptides (A, B, C) (peptides A, B and C [3]; 5% [v/v]): both exhibit protection ability
- signal stability over time (MassSpec peak area), peptides A, B and C (peptides A, B and C [3]; FIG. 2, 5% [v/v] vs no additive and 5% DMSO): better signal stability over time
- ability to stabilize gastrin-17 in serum (gastrin-17 [4]): have the ability to stabilize peptides
- stabilizing effect on gastrin-17 compared with DMSO (gastrin-17 [4]): superior to the DMSO stabilizing effect
- protection of gastrin peptide over a longer period compared with DMSO (gastrin-17 [4]; ca. 24 h, similar concentrations like DMSO, serum derived degradation): can protect the Gastrin Peptide better over a longer period
- stability against oxidation compared with DMSO [5]: more stable against oxidation than DMSO
- stability of Sulfolane compared with DMSO based upon oxidation ([5]; no experiment described at the place): more stable than DMSO based upon oxidation
- protection of gastrin-17 compared with DMSO (gastrin-17 [6]; [7]): exceeds the DMSO protection outcome
- protection ability on gastrin-17 (gastrin-17 [6]; 5% [v/v]): both exhibit protection ability
- signal stability over time (MassSpec peak area), gastrin-17 (gastrin-17 [6]; FIG. 1, 5% [v/v] vs no additive and 5% DMSO): better signal stability over time

Compound: C[S+](C)[O-] [DMSO, dimethylsulfoxid, reference compound]
- concentration dependence of stabilization, peptides A, B and C (peptides A, B and C [1]; 5 h): stabilization increased with the concentration
- stabilization of peptides A, B and C (peptides A, B and C [1]): stabilized each of the peptides
- concentration dependence of stabilization, gastrin-17 (gastrin-17 [2]; 5 h): stabilization increased with the concentration
- stabilization of gastrin-17 (gastrin-17 [2]): stabilized each of the peptides
- protection ability on different peptides (A, B, C) (peptides A, B and C [3]; 5% [v/v]): both exhibit protection ability
- oxidation instability ([5]; background statement): rather instable
- protection ability on gastrin-17 (gastrin-17 [6]; 5% [v/v]): both exhibit protection ability

Compound: CC1CCCS1(=O)=O (stereo not drawn) [methyltetrahydrothiophene 1,1-dioxide, 2-methyltetrahydrothiophene 1,1-dioxide]
- ability to stabilize gastrin-17 in serum (gastrin-17 [4]): have the ability to stabilize peptides
- stabilizing effect on gastrin-17 compared with DMSO (gastrin-17 [4]): superior to the DMSO stabilizing effect
- stability against oxidation compared with DMSO [5]: more stable against oxidation than DMSO

Compound: O=S1(=O)CCCN1 [1,1-dioxoisothiazolidine]
- ability to stabilize gastrin-17 in serum (gastrin-17 [4]): have the ability to stabilize peptides
- stability against oxidation compared with DMSO [5]: more stable against oxidation than DMSO

Compound: CCS(C)(=O)=O [ethylmethylsulfone]
- ability to stabilize gastrin-17 in serum (gastrin-17 [4]): have the ability to stabilize peptides
- stabilizing effect on gastrin-17 compared with DMSO (gastrin-17 [4]): superior to the DMSO stabilizing effect
- stability against oxidation compared with DMSO [5]: more stable against oxidation than DMSO

Compound: O=S1(=O)CCC1 [trimethylene sulfone]
- ability to stabilize gastrin-17 in serum (gastrin-17 [4]): have the ability to stabilize peptides
- stabilizing effect on gastrin-17 compared with DMSO (gastrin-17 [4]): superior to the DMSO stabilizing effect
- stability against oxidation compared with DMSO [5]: more stable against oxidation than DMSO

Compound: O=S1(=O)CCC(O)CC1 [tetrahydro-2H-thiopyran-4-ol 1,1-dioxide]
- ability to stabilize gastrin-17 in serum (gastrin-17 [4]): have the ability to stabilize peptides
- stabilizing effect on gastrin-17 compared with DMSO (gastrin-17 [4]): superior to the DMSO stabilizing effect
- stability against oxidation compared with DMSO [5]: more stable against oxidation than DMSO

Compound: O=S1(=O)CCCCO1 [1,4-butanesultone]
- ability to stabilize gastrin-17 in serum (gastrin-17 [4]): have the ability to stabilize peptides
- stabilizing effect on gastrin-17 compared with DMSO (gastrin-17 [4]): superior to the DMSO stabilizing effect
- stability against oxidation compared with DMSO [5]: more stable against oxidation than DMSO
